Tests used:
Assay type in all cases: functional
[1] = tested on: HCT-116; test: Growth inhibition of human HCT116 cells assessed as cell growth incubated for 48 hrs by sulforhodamine B assay; parameters: concentration or dose not given beside the values
[2] = tested on: MOLT-4; test: Growth inhibition of human MOLT4 cells assessed as cell growth incubated for 48 hrs by sulforhodamine B assay; parameters: concentration or dose not given beside the values
[3] = tested on: MCF7; test: Growth inhibition of human MCF7 cells assessed as cell growth incubated for 48 hrs by sulforhodamine B assay; parameters: concentration or dose not given beside the values
[4] = tested on: IGROV-1; test: Growth inhibition of human IGROV1 cells assessed as cell growth incubated for 48 hrs by sulforhodamine B assay; parameters: scale not given: the % may be the effect or the level left
[5] = tested on: HCC 2998; test: Growth inhibition of human HCC2998 cells assessed as cell growth incubated for 48 hrs by sulforhodamine B assay; parameters: concentration or dose not given beside the values
[6] = tested on: NCI-H460; test: Growth inhibition of human NCI-H460 cells assessed as cell growth incubated for 48 hrs by sulforhodamine B assay; parameters: concentration or dose not given beside the values
[7] = tested on: HOP-92; test: Growth inhibition of human HOP92 cells assessed as cell growth incubated for 48 hrs by sulforhodamine B assay; parameters: concentration or dose not given beside the values
[8] = tested on: SK-MEL-5; test: Growth inhibition of human SK-MEL-5 cells assessed as cell growth incubated for 48 hrs by sulforhodamine B assay; parameters: concentration or dose not given beside the values
[9] = tested on: TK-10; test: Growth inhibition of human TK10 cells assessed as cell growth incubated for 48 hrs by sulforhodamine B assay; parameters: concentration or dose not given beside the values
[10] = tested on: SR; test: Growth inhibition of human SR cells assessed as cell growth incubated for 48 hrs by sulforhodamine B assay; parameters: concentration or dose not given beside the values
[11] = tested on: PC-3; test: Growth inhibition of human PC3 cells assessed as cell growth incubated for 48 hrs by sulforhodamine B assay; parameters: concentration or dose not given beside the values
[12] = tested on: UACC-62; test: Growth inhibition of human UACC62 cells assessed as cell growth incubated for 48 hrs by sulforhodamine B assay; parameters: concentration or dose not given beside the values
[13] = tested on: LOX IMVI; test: Growth inhibition of human LOXIMVI cells assessed as cell growth incubated for 48 hrs by sulforhodamine B assay; parameters: concentration or dose not given beside the values
[14] = tested on: NCI-H322M; test: Growth inhibition of human NCI-H322M cells assessed as cell growth incubated for 48 hrs by sulforhodamine B assay; parameters: scale not given: the % may be the effect or the level left
[15] = tested on: SF-268; test: Growth inhibition of human SF268 cells assessed as cell growth incubated for 48 hrs by sulforhodamine B assay; parameters: concentration or dose not given beside the values
[16] = tested on: MDA-MB-231; test: Growth inhibition of human MDA-MB-231 cells assessed as cell growth incubated for 48 hrs by sulforhodamine B assay; parameters: concentration or dose not given beside the values
[17] = tested on: NCI-H23; test: Growth inhibition of human NCI-H23 cells assessed as cell growth incubated for 48 hrs by sulforhodamine B assay; parameters: concentration or dose not given beside the values
[18] = tested on: NCI-H522; test: Growth inhibition of human NCI-H522 cells assessed as cell growth incubated for 48 hrs by sulforhodamine B assay; parameters: concentration or dose not given beside the values
[19] = tested on: T47D; test: Growth inhibition of human T47D cells assessed as cell growth incubated for 48 hrs by sulforhodamine B assay; parameters: concentration or dose not given beside the values
[20] = tested on: MDA-MB-468; test: Growth inhibition of human MDA-MB-468 cells assessed as cell growth incubated for 48 hrs by sulforhodamine B assay; parameters: concentration or dose not given beside the values
[21] = tested on: NCI/ADR-RES; test: Growth inhibition of human NCI/ADR-RES cells assessed as cell growth incubated for 48 hrs by sulforhodamine B assay; parameters: concentration or dose not given beside the values
[22] = tested on: A498; test: Growth inhibition of human A498 cells assessed as cell growth incubated for 48 hrs by sulforhodamine B assay; parameters: concentration or dose not given beside the values
[23] = tested on: 786-0; test: Growth inhibition of human 786-0 cells assessed as cell growth incubated for 48 hrs by sulforhodamine B assay; parameters: concentration or dose not given beside the values
[24] = tested on: OVCAR-4; test: Growth inhibition of human OVCAR4 cells assessed as cell growth incubated for 48 hrs by sulforhodamine B assay; parameters: concentration or dose not given beside the values
[25] = tested on: U-251; test: Growth inhibition of human U251 cells assessed as cell growth incubated for 48 hrs by sulforhodamine B assay; parameters: concentration or dose not given beside the values
[26] = tested on: OVCAR-3; test: Growth inhibition of human OVCAR3 cells assessed as cell growth incubated for 48 hrs by sulforhodamine B assay; parameters: concentration or dose not given beside the values
[27] = tested on: KM12; test: Growth inhibition of human KM12 cells assessed as cell growth incubated for 48 hrs by sulforhodamine B assay; parameters: concentration or dose not given beside the values
[28] = tested on: COLO 205; test: Growth inhibition of human COLO205 cells assessed as cell growth incubated for 48 hrs by sulforhodamine B assay; parameters: concentration or dose not given beside the values
[29] = tested on: M14; test: Growth inhibition of human M14 cells assessed as cell growth incubated for 48 hrs by sulforhodamine B assay; parameters: concentration or dose not given beside the values
[30] = tested on: SK-MEL-28; test: Growth inhibition of human SK-MEL-28 cells assessed as cell growth incubated for 48 hrs by sulforhodamine B assay; parameters: concentration or dose not given beside the values
[31] = tested on: SNB-75; test: Growth inhibition of human SNB75 cells assessed as cell growth incubated for 48 hrs by sulforhodamine B assay; parameters: concentration or dose not given beside the values
[32] = tested on: RPMI-8226; test: Growth inhibition of human RPMI8226 cells assessed as cell growth incubated for 48 hrs by sulforhodamine B assay; parameters: concentration or dose not given beside the values
[33] = tested on: DU-145; test: Growth inhibition of human DU145 cells assessed as cell growth incubated for 48 hrs by sulforhodamine B assay; parameters: concentration or dose not given beside the values
[34] = tested on: SK-MEL-2; test: Growth inhibition of human SK-MEL-2 cells assessed as cell growth incubated for 48 hrs by sulforhodamine B assay; parameters: concentration or dose not given beside the values
[35] = tested on: K562; test: Growth inhibition of human K562 cells assessed as cell growth incubated for 48 hrs by sulforhodamine B assay; parameters: concentration or dose not given beside the values
[36] = tested on: CAKI-1; test: Growth inhibition of human Caki1 cells assessed as cell growth incubated for 48 hrs by sulforhodamine B assay; parameters: concentration or dose not given beside the values
[37] = tested on: OVCAR-8; test: Growth inhibition of human OVCAR8 cells assessed as cell growth incubated for 48 hrs by sulforhodamine B assay; parameters: concentration or dose not given beside the values
[38] = tested on: UACC-257; test: Growth inhibition of human UACC257 cells assessed as cell growth incubated for 48 hrs by sulforhodamine B assay; parameters: concentration or dose not given beside the values
[39] = tested on: Malme-3M; test: Growth inhibition of human MALME-3M cells assessed as cell growth incubated for 48 hrs by sulforhodamine B assay; parameters: scale not given: the % may be the effect or the level left
[40] = tested on: NCI-H226; test: Growth inhibition of human NCI-H226 cells assessed as cell growth incubated for 48 hrs by sulforhodamine B assay; parameters: concentration or dose not given beside the values
[41] = tested on: HL-60(TB); test: Growth inhibition of human HL-60(TB) cells assessed as cell growth incubated for 48 hrs by sulforhodamine B assay; parameters: concentration or dose not given beside the values
[42] = tested on: BT-549; test: Growth inhibition of human BT549 cells assessed as cell growth incubated for 48 hrs by sulforhodamine B assay; parameters: concentration or dose not given beside the values
[43] = tested on: Hs-578T; test: Growth inhibition of human Hs 578T cells assessed as cell growth incubated for 48 hrs by sulforhodamine B assay; parameters: concentration or dose not given beside the values
[44] = tested on: SK-OV-3; test: Growth inhibition of human SKOV3 cells assessed as cell growth incubated for 48 hrs by sulforhodamine B assay; parameters: concentration or dose not given beside the values
[45] = tested on: SF-295; test: Growth inhibition of human SF295 cells assessed as cell growth incubated for 48 hrs by sulforhodamine B assay; parameters: concentration or dose not given beside the values
[46] = tested on: CCRF-CEM; test: Growth inhibition of human CCRF-CEM cells assessed as cell growth incubated for 48 hrs by sulforhodamine B assay; parameters: concentration or dose not given beside the values
[47] = tested on: RXF 393; test: Growth inhibition of human RXF393 cells assessed as cell growth incubated for 48 hrs by sulforhodamine B assay; parameters: concentration or dose not given beside the values
[48] = tested on: SN12C; test: Growth inhibition of human SN12C cells assessed as cell growth incubated for 48 hrs by sulforhodamine B assay; parameters: concentration or dose not given beside the values
[49] = tested on: HT-29; test: Growth inhibition of human HT-29 cells assessed as cell growth incubated for 48 hrs by sulforhodamine B assay; parameters: concentration or dose not given beside the values
[50] = tested on: UO-31; test: Growth inhibition of human UO31 cells assessed as cell growth incubated for 48 hrs by sulforhodamine B assay; parameters: concentration or dose not given beside the values
[51] = tested on: HOP-62; test: Growth inhibition of human HOP62 cells assessed as cell growth incubated for 48 hrs by sulforhodamine B assay; parameters: concentration or dose not given beside the values
[52] = tested on: A549; test: Growth inhibition of human A549/ATCC cells assessed as cell growth incubated for 48 hrs by sulforhodamine B assay; parameters: concentration or dose not given beside the values
[53] = tested on: MDA-MB-435; test: Growth inhibition of human MDA-MB-435 cells assessed as cell growth incubated for 48 hrs by sulforhodamine B assay; parameters: concentration or dose not given beside the values
[54] = tested on: SNB-19; test: Growth inhibition of human SNB19 cells assessed as cell growth incubated for 48 hrs by sulforhodamine B assay; parameters: concentration or dose not given beside the values
[55] = tested on: SW-620; test: Growth inhibition of human SW620 cells assessed as cell growth incubated for 48 hrs by sulforhodamine B assay; parameters: concentration or dose not given beside the values

CC(C)(C)OC(=O)NCC1CN(C(=O)CCc2ccc3c(=O)c4sc5c(=O)c6ccccc6c(=O)c5c4c(=O)c3c2)C1
Activity [1]: -89.29% | Activity [2]: -47.44% | Activity [3]: -63.33% | Activity [4]: -62.41% | Activity [5]: -90.99% | Activity [6]: -45.51% | Activity [7]: -14.16% | Activity [8]: -99.11% | Activity [9]: -8.18% | Activity [10]: -5.83% | Activity [11]: 4.68% | Activity [12]: -68.32% | Activity [13]: -69.24% | Activity [14]: -94.65% | Activity [15]: -39.06% | Activity [16]: -12.92% | Activity [17]: -39.91% | Activity [18]: -42.91% | Activity [19]: -33.26% | Activity [20]: -50.83% | Activity [21]: -12.16% | Activity [22]: 35.61% | Activity [23]: -48.69% | Activity [24]: -90.58% | Activity [25]: -70.04% | Activity [26]: -33.51% | Activity [27]: -27.78% | Activity [28]: -97.62% | Activity [29]: -97.99% | Activity [30]: -21.85% | Activity [31]: -83.64% | Activity [32]: -36.74% | Activity [33]: -95.53% | Activity [34]: -50.15% | Activity [35]: -13.04% | Activity [36]: 0.12% | Activity [37]: -55.88% | Activity [38]: -95.5% | Activity [39]: -88.84% | Activity [40]: -51.46% | Activity [41]: -44.47% | Activity [42]: -94.11% | Activity [43]: -20.36% | Activity [44]: -34.85% | Activity [45]: -95.8% | Activity [46]: -45.34% | Activity [47]: -48.97% | Activity [48]: -79.71% | Activity [49]: -57.09% | Activity [50]: -81.64% | Activity [51]: -74.88% | Activity [52]: -66.1% | Activity [53]: -97.59% | Activity [54]: -4.23% | Activity [55]: -23.01%
